Reference: patent US11198680B2 (BioAxone BioSciences, Inc., priority 2016, dated 2021)
pEC50, pKd: −log10 of the molar value. Where two headings read alike, the source gives them in different places.

Columns and labels:
[1] = biological target: ROCK2 (Homo sapiens (Human), UniProt O75116); experiment: biochemical
Experimental: The assay is performed by combining the DNA-tagged kinase, immobilized ligand, and a test compound. The ability of the test compound to compete with the immobilized ligand is measured via quantitative PCR of the DNA tag.
The highest concentration tested was 30 μM.

[2] = SAFETYscan off-target panel, all targets; conditions: 10 μM; except 5-HT2b-receptor
Experimental: (§1) The SAFETYscan™ (DiscoverX) is used for rapid testing of any compound against a panel that includes well-known membrane proteins of importance for drug development such as selected voltage-gated ion channels, G-protein coupled receptors, neurotransmitter transporters and also a selected group of purified cellular enzymes.
(§2) Cell lines engineered to express individual transmembrane receptor proteins such as the muscarinic acetylcholine receptor or the dopamine D1 receptor were grown in culture in their standard growth medium until reaching confluence. […] The experiment also contains controls for comparison including known agonists and antagonists of the targeted membrane proteins.
(§3) For assays using purified enzymes, an enzyme assay is set up in standard reaction buffer and necessary indicators for activity such as co-factors, buffers and synthetic substrates. […] As positive controls, a binding assay using Rho kinase (ROCK) was included in the panel. Other targets in the panel included G-protein coupled receptors, nuclear hormone receptors, intracellular non-kinase enzymes, ion channels, and neurotransmitter transporters. The specific targets were chosen because of their previous known associations with being the source of problematic off-target effects in cellular or whole animal studies.

[3] = biological target: 5-HT2b-receptor (Homo sapiens (Human), UniProt P41595); experiment: SAFETYscan off-target panel; type: cell-based; conditions: 10 μM
Experimental: as §1, §2, §3

[4] = Brain concentration after IV BA-1049 (R), LC-MS/MS; type: in vivo; conditions: mouse
Experimental: Mice are dosed either by intravenous (IV) administration or oral (PO) administration via oral gavage.
After IV dosing, brains are collected from 4 mice at each time point: 0.083 hr, 0.5 hr, 2 hr, 6 hr, 12 hr, and 24 hr after dose. Each mouse is euthanized by CO2. The entire brains are removed, weighed, rinsed with PBS, placed in tubes, and snap frozen in liquid nitrogen.
Brain tissue was homogenized in 1 mL/g PBS. Brain homogenates are precipitated by pipetting 200 μL of homogenate into a tube using aseptically cut off 1000 μL pipette tips to prevent clogging.

[5] = Daily repeat dosing for 2 weeks in normal mice, adverse effects; type: in vivo, mouse
Experimental: In a separate set of experiments, daily repeat dosing experiments were performed to assess adverse effects. […] During the course of the experiment, animals were monitored daily for the appearance of any clinical signs. Hematology, blood chemistry, and histopathology were followed at termination of the experiment.

[6] = biological target: FGFR4 (Homo sapiens (Human), UniProt P22455); experiment: KINOMEscan kinome screen; conditions: percent of negative control binding
Excerpt: (§4) The KINOMEscan™ screening platform (DiscoverX, Fremont, Calif.) employs a novel active site-directed competition binding assay to quantitatively measure interactions between test compounds and more than 450 human kinases and disease relevant mutant variants. […] Compounds that bind the kinase active site and directly (sterically) or indirectly (allosterically) prevent kinase binding to the immobilized ligand, will reduce the amount of kinase captured on the solid support. […] Screening “hits” are identified by measuring the amount of kinase captured in test versus control samples by using a quantitative, precise and ultra-sensitive qPCR method that detects the associated DNA label.
(§5) Kinase-tagged T7 phage strains were grown in parallel in 24-well blocks in an E. coli host derived from the BL21 strain. E. coli were grown to log-phase and infected with T7 phage from a frozen stock (multiplicity of infection=0.4) and incubated with shaking at 32° C. until lysis (90-150 minutes). The lysates were centrifuged (6,000×g) and filtered (0.2 μm) to remove cell debris. The remaining kinases were produced in HEK-293 cells and subsequently tagged with DNA for qPCR detection (Wein, et al. (2016) Nat. Comm. 7). […] Test compounds were prepared as 40× stocks in 100% DMSO and directly diluted into the assay. All reactions were performed in polypropylene 384-well plates in a final volume of 0.02 ml.

[7] = biological target: MARK2 (Homo sapiens (Human), UniProt Q7KZI7); experiment: KINOMEscan kinome screen; conditions: percent of negative control binding
Excerpt: as §4, §5

[8] = biological target: ALK (Homo sapiens (Human), UniProt Q9UM73); experiment: KINOMEscan kinome screen; conditions: percent of negative control binding
Excerpt: as §4, §5

[9] = biological target: MARK4 (Homo sapiens (Human), UniProt Q96L34); experiment: KINOMEscan kinome screen; conditions: percent of negative control binding
Excerpt: as §4, §5

[10] = biological target: MARK3 (Homo sapiens (Human), UniProt P27448); experiment: KINOMEscan kinome screen; conditions: percent of negative control binding
Excerpt: as §4, §5

[11] = biological target: MARK1 (Homo sapiens (Human), UniProt Q9P0L2); experiment: KINOMEscan kinome screen; conditions: percent of negative control binding
Excerpt: as §4, §5

[12] = biological target: MEK2 (Homo sapiens (Human), UniProt P36507); experiment: KINOMEscan kinome screen; conditions: percent of negative control binding
Excerpt: as §4, §5

[13] = biological target: SLK (Homo sapiens (Human), UniProt Q9H2G2); experiment: KINOMEscan kinome screen; conditions: percent of negative control binding
Excerpt: as §4, §5

[14] = biological target: IRAK3 (Homo sapiens (Human), UniProt Q9Y616); experiment: KINOMEscan kinome screen; conditions: percent of negative control binding
Excerpt: as §4, §5

[15] = biological target: MEK1 (Homo sapiens (Human), UniProt Q02750); experiment: KINOMEscan kinome screen; conditions: percent of negative control binding
Excerpt: as §4, §5

[16] = biological target: PRKCQ (Homo sapiens (Human), UniProt Q04759); experiment: KINOMEscan kinome screen; conditions: percent of negative control binding
Excerpt: as §4, §5

[17] = biological target: SERT (serotonin transporter) (Homo sapiens (Human), UniProt P31645); experiment: SAFETYscan neurotransmitter transporter activity; type: cell-based
Experimental: as §1, §2

[18] = biological target: NET (norepinephrine transporter) (Homo sapiens (Human), UniProt P23975); experiment: SAFETYscan neurotransmitter transporter activity; type: cell-based
Experimental: as §1, §2

[19] = tested on: intracellular ROCK activity (ppMLC2 T18/S19) in HUVECs; experiment: HUVEC ppMLC2 dose-response; type: cell-based, human; conditions: for pEC50: 1 h exposure, read-out: EC50 for reduction of MLC2 diphosphorylation; for maximum reduction of ppMLC2 levels: highest dose tested 1 mM, 1 h
Experimental: Cells were exposed to each dose for 1 h. All experiments were conducted in triplicate and analyzed by 2 independent assessors blinded to the compound and compound concentration.
Cells were subjected to biochemical protein analysis of di-phosphorylated MLC2 (Threonine 18/Serine 19 phosphorylation sites) using SDS-PAGE and immunoblotting. Cells were plated in a 24-well tissue culture plates, coated with 70 μg/ml rat collagen-1 (Corning) and grown for 2-3 days at 37° C./5% CO2 until confluency. […] Drugs were diluted in Medium 200 (Thermo Fisher Scientific) supplemented with 0.1% human serum albumin (HSA, Sigma-Aldrich). After 1 h, cells were lysed with RIPA buffer (Boston Bioproducts; Ashland, Mass.) supplemented with complete protease/phosphatase inhibitors (HALT, Thermo Fisher Scientific), reduced, and denatured with Laemmli sample buffer (BioRad)/beta-mercaptoethanol. Denatured samples were electrophoresed in reducing 10% Bis-Tris-PA gels (Novex) and then transferred onto 0.25 μm PVDF membranes (EMD Millipore). Membranes were incubated with 4% bovine serum albumin solution to block unspecific antibody binding sites and then immunolabeled for ppMLC2 T18/S19 (1:500, Cell Signaling) and glyceraldehyde 3-phosphate dehydrogenase loading control (GAPDH, 1:10,000; Abcam). Protein levels were detected using a chemiluminescence substrate (Super Signal West, ThermoFisher) and were captured with FluoroChem SP imaging system. Chemiluminescence of ppMLC2 and GAPDH was measured by densitometric analysis. ppMLC2 signal was normalized against GAPDH signal plotted as percentage of no treatment control (0 μM). EC50 values were determined by dose-response analysis using GraphPad software.

[20] = tested on: Rho/ROCK activity (MLC2 diphosphorylation) in human brain microvascular endothelial cells; experiment: LPA-treated hBMVECs, pMLC2 T18/S19 immunoblot; type: cell-based; conditions: 20 μM LPA, Example 16, present tense
Experimental: Cells are exposed to each dose for 1 hr, and are then stimulated with 20 μM LPA for either 5 min or 1 hr as described below. All experiments are conducted in triplicate and analyzed by 2 independent assessors blinded to both cell line and treatment.
Cells are subjected to biochemical analysis of diphosphorylated MLC2 (Threonine 18/Serine 19 phosphorylation sites) and phosphorylated cofilin (Serine 9 phosphorylation site) using SDS-PAGE and immunoblotting. Cells are plated in 24-well tissue culture plates coated with 70 μg/ml rat collagen-1 (Corning) and grown in ENDO-growth media (Neuromics) for 3 days at 37° C./5% CO2 until confluency. […] The medium is exchanged for ENDO basal media supplemented with 1% HSA, 20 μM of LPA (Santa Cruz Biotech; Santa Cruz, Calif.) and the appropriate amount of compound being tested. After 5 min, the medium is aspirated and the cells are briefly washed with 1×PBS. Proteins are extracted from cells by lysis with RIPA buffer supplemented with complete protease/phosphatase inhibitor (HALT, Thermo Fisher Scientific), reduced and denatured using Laemmli sample buffer (BioRad; Hercules, Calif., beta-mercaptoethanol and subjected to SDS-PAGE.
Denatured samples are electrophoresed in reducing 10% Bis-Tris-PA gels (Novex; Thermo-Fisher), and are transferred onto 0.25 μm PVDF membranes (EMD Millipore). Membranes are probed using amti-pMLC2 T18/S19 (1:500; Cell Signaling) or anti-pCofilin (1:500, Cell Signaling S9) and anti-glyceraldehyde 3-phosphate dehydrogenase loading control (GAPDH, 1:10000; Abcam, Cambridge, Mass.). Protein levels are detected using a chemiluminescence substrate (Super Signal West, ThermoFisher) and images are captured using a FluoroChem SP Imaging System.

[21] = tested on: ROCK1; experiment: KINOMEscan kinome screen; conditions: percent of negative control binding; first ROCK1 row
Excerpt: as §4, §5

Chain of MARK3 (P27448 whole entry): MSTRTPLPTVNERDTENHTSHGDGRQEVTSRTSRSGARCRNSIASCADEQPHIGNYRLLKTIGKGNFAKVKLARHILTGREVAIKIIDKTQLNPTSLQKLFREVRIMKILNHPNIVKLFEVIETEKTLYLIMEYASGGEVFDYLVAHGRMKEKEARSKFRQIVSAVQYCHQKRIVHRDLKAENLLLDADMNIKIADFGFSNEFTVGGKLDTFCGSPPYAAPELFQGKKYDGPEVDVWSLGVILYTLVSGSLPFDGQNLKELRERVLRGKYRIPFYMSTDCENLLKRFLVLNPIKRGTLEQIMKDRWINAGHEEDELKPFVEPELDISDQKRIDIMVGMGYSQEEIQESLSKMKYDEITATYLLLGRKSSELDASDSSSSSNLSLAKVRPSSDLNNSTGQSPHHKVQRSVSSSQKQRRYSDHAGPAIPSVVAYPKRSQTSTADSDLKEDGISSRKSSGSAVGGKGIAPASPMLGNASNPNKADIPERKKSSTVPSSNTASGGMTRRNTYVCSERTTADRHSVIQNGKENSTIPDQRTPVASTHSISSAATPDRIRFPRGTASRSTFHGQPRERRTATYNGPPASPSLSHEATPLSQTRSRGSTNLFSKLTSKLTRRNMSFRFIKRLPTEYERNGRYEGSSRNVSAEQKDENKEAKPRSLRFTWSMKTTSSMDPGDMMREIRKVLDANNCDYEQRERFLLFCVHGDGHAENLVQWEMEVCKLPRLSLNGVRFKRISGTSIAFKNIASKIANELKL
Chain of MARK2 (Q7KZI7 whole entry): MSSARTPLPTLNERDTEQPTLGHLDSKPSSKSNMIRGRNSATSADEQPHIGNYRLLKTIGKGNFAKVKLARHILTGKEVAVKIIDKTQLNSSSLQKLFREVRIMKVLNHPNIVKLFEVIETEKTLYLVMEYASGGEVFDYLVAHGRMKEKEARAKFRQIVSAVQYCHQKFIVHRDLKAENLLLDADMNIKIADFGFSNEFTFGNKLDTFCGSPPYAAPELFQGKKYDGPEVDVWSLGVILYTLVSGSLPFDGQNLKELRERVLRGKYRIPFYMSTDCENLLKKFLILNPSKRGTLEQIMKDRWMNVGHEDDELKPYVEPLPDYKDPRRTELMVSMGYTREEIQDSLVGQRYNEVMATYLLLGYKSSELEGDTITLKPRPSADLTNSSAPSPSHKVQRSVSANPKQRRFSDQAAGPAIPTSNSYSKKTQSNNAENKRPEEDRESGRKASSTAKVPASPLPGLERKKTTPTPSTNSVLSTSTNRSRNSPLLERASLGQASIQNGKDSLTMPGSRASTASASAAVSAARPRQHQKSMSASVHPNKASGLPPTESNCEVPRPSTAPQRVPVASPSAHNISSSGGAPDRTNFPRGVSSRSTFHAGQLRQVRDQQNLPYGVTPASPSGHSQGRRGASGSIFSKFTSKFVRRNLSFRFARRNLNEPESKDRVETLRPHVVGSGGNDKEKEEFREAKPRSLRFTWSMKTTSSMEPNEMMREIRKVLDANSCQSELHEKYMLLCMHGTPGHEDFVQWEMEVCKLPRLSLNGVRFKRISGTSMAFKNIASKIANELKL
Chain of MEK2 (P36507 whole entry): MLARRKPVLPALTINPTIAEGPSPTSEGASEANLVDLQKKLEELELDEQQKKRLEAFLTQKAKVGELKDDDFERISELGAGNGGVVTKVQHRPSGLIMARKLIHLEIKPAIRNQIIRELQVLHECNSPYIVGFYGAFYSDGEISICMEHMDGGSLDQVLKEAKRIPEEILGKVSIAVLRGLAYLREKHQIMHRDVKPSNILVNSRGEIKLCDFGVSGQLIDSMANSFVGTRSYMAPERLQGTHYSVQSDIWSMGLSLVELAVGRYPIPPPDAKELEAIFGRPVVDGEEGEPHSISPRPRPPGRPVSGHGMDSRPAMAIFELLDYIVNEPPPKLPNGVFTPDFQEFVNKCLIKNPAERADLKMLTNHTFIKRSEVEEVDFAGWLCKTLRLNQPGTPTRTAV
Chain of MEK1 (Q02750 whole entry): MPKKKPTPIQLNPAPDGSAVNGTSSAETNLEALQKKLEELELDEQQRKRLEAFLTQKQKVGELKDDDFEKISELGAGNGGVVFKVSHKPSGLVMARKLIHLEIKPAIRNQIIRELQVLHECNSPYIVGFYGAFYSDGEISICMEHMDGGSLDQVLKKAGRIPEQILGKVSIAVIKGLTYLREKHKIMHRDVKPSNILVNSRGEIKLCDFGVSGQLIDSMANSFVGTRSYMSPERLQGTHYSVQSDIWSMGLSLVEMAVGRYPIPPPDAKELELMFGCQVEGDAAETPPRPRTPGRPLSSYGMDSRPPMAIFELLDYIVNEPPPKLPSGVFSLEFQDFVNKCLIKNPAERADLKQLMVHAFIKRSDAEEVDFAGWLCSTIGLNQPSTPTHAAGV
Chain of SLK (Q9H2G2 whole entry): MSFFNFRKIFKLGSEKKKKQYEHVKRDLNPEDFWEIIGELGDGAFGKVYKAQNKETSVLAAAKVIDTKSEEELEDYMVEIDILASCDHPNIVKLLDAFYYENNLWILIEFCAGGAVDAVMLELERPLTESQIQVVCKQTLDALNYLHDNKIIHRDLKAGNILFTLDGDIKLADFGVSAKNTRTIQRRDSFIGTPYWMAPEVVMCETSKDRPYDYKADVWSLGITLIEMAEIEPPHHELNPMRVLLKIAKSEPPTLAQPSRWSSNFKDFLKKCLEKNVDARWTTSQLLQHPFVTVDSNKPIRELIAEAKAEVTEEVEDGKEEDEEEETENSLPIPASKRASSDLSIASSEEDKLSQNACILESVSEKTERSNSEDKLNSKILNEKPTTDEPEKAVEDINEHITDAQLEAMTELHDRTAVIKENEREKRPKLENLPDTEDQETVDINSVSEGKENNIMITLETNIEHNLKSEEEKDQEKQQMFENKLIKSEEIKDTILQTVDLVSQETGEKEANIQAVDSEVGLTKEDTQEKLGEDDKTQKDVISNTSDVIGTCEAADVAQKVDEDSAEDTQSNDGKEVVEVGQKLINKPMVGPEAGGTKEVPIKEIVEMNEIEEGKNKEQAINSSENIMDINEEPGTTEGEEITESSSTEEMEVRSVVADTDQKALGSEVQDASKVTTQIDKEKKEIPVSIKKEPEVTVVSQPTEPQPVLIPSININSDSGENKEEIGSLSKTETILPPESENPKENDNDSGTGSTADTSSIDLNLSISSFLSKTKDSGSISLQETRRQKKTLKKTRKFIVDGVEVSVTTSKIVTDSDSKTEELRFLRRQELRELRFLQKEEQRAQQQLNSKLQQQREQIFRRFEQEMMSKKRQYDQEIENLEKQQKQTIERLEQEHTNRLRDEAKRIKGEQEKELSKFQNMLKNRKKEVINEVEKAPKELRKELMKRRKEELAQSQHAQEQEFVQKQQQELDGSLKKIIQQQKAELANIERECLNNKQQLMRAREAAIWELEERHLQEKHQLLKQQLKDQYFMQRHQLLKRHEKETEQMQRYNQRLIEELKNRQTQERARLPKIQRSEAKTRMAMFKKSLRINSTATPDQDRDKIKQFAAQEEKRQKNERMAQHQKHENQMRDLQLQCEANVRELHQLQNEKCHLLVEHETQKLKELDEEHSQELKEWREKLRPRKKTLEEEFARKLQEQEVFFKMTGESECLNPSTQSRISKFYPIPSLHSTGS
Chain of PRKCQ (Q04759 whole entry): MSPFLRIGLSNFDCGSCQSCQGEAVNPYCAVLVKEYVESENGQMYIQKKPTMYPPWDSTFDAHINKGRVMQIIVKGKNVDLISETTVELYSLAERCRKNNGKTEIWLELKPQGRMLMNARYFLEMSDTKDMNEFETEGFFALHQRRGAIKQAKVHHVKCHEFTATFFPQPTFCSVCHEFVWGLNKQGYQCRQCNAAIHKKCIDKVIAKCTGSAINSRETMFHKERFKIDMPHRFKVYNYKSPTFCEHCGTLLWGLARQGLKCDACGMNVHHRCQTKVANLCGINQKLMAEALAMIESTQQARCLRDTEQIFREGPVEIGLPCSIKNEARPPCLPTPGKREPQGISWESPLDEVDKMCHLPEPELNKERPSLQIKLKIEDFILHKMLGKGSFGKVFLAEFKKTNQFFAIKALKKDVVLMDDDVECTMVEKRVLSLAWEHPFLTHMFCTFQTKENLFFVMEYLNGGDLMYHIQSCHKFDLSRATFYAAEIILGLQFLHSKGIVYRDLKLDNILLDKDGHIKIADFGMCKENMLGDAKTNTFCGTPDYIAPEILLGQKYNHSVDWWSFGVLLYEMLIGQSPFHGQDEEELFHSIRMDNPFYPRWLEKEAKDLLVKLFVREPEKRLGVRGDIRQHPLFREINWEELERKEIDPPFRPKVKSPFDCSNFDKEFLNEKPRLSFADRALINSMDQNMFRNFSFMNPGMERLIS
Chain of MARK4 (Q96L34 whole entry): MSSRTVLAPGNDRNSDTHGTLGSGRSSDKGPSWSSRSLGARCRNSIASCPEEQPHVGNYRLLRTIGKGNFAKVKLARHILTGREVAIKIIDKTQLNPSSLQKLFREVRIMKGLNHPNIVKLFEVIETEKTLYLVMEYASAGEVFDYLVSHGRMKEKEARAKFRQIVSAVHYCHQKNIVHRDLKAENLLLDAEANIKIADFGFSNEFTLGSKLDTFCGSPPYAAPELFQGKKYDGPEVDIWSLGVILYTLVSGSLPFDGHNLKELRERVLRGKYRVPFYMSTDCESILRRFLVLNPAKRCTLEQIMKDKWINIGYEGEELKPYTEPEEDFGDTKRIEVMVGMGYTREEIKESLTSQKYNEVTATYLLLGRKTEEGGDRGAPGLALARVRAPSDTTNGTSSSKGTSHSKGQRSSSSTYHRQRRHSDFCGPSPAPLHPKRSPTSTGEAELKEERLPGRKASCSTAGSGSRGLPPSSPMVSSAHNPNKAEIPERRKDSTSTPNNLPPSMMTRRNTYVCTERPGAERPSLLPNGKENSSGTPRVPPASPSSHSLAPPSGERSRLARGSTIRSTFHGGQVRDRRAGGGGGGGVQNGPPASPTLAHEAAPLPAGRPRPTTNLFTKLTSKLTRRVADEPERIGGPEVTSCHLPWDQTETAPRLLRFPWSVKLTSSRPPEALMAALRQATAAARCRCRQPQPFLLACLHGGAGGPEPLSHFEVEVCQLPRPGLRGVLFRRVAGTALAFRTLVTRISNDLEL

| Structure (SMILES) | % Negative Binding, FGFR4 [6] [%] | % Negative Binding, MARK2 [7] [%] | % Negative Binding, ALK [8] [%] | % Negative Binding, MARK4 [9] [%] | % Negative Binding, MARK3 [10] [%] | % Negative Binding, MARK1 [11] [%] | % Negative Binding, MEK2 [12] [%] | % Negative Binding, SLK [13] [%] | % Negative Binding, IRAK3 [14] [%] | % Negative Binding, MEK1 [15] [%] | % Negative Binding, PRKCQ [16] [%] | maximum reduction of ppMLC2 levels [19] [%] | further results |
| --- | --- | --- | --- | --- | --- | --- | --- | --- | --- | --- | --- | --- | --- |
| C[C@@H](N)C1CCN(S(=O)(=O)c2cccc3cnccc23)CC1 [BA-1049 (R)] | 100 | 100 | 94 | 94 | 100 | 67 | 99 | 70 | 92 | 99 | 74 | 89 | pKd ([1]; ROCK2 KD, average of duplicate determinations, Table 5): 7.20; pKd ([1]; ROCK2 Kd, Table 1): 7.23; activity against targets in the total SAFETYscan [2]: no activity against any of the targets in the total SAFETYscan™; interaction with the 5-HT2b-receptor [3]: potential antagonistic interaction; time detectable in brain after administration ([4]; 5 mg/kg BA-1049 (R) IV): at least 24 hr; findings in daily repeat dosing ([5]; 1 mg/kg and 10 mg/kg once daily I.P. for 2 weeks): no abnormal findings; no observed effect level dose ([5]; 2 week repeat dose, I.P.): 10 mg/kg; inhibition at 10 µM ([17]; read-out: % Inhibition of Neurotransmitter Transporter Activity, SERT): 9%; inhibition at 10 µM [18]: 12%; pEC50 ([19]; Homo sapiens, HUVEC): 5.42 |
| C[C@@H](N)C1CCN(S(=O)(=O)c2cccc3c(=O)[nH]ccc23)CC1 [1-hydroxy-BA-1049 (R)] | 100 | 100 | 81 | 92 | 81 | 69 | 97 | 100 | 96 | 100 | 66 | 94 | concentration fully abolishing MLC2 diphosphorylation [20]: ≥ 10 µM; effect on MLC2 diphosphorylation (pMLC2 T18/S19) ([20]; no data shown): reduce MLC2 diphosphorylation; time detectable in brain after administration ([4]; in vivo, iv, 5 mg/kg): < 12 h; % Negative Binding, ROCK1 [21]: 0.15%; % Inhibition of Neurotransmitter Transporter Activity, SERT ([17]; 10 μM): 14%; % Inhibition of Neurotransmitter Transporter Activity, NET ([18]; 10 μM): 11%; pEC50 [19]: 6.35 |
